Laboratory results as given in patent US11136313B2, “Compounds, compositions, and methods for modulating CFTR” (Proteostasis Therapeutics, Inc., priority 2015, dated 2021).

These molecules were tested against T1, ΔF508-CFTR (Homo sapiens, UniProt P13569, DEL508-508) (assay: hBE equivalent current (Ieq) assay: AUC of equivalent chloride current after forskolin/VX-770 in primary lung epithelial cells homozygous for ΔF508). Settings: relative to CFTR amplifier (Compound A)+VX-809 (3 uM), compound at 10 uM and Compound A at 3 uM, 24 h treatment.
T1 construct: Primary lung epithelial cells homozygous for the Cystic Fibrosis-causing ΔF508 mutation were differentiated for a minimum of 4 weeks; endogenous in cells; host or cells: primary lung epithelial cells (hBE) homozygous for ΔF508, differentiated at an air-liquid interface
T1 sequence (P13569 with tags, fused parts or gaps DEL508-508): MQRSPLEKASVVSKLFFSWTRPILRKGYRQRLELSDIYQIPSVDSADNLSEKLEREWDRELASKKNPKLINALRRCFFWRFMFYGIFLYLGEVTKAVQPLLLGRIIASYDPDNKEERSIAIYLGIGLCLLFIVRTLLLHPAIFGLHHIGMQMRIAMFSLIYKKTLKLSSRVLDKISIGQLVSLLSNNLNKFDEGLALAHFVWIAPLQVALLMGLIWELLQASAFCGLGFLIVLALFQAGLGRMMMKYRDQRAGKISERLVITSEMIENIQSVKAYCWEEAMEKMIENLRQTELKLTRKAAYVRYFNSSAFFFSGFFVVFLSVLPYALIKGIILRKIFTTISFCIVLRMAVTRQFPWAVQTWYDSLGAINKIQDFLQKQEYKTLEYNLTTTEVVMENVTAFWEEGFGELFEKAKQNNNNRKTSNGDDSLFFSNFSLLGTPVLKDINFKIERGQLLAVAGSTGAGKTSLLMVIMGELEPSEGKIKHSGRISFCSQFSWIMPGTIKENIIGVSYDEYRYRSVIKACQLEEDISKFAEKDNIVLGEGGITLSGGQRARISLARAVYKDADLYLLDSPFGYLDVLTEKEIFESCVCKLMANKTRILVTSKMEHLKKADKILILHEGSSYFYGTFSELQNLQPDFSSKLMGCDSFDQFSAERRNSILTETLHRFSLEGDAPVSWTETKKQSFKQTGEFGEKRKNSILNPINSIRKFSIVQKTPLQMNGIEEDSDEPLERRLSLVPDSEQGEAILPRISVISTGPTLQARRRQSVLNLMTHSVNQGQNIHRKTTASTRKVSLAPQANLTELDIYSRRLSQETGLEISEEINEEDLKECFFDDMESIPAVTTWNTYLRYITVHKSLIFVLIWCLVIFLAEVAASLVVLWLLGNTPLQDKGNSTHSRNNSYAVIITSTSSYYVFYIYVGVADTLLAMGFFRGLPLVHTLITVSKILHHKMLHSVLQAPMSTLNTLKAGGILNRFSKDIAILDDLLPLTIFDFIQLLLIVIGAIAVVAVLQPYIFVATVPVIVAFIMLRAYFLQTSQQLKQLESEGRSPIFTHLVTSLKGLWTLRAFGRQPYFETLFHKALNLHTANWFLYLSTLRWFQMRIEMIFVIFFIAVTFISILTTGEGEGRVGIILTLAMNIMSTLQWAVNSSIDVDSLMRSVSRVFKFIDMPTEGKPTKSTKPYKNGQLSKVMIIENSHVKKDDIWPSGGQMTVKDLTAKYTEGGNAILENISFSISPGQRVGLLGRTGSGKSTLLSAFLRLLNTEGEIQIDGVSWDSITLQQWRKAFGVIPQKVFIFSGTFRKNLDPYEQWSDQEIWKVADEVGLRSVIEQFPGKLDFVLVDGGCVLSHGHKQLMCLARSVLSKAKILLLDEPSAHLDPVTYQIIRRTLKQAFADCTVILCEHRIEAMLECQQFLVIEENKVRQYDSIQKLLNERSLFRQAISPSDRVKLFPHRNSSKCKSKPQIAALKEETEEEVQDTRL
Type: cell-based
Method in brief: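 ΔF508/ΔF508 primary human bronchial epithelia, differentiated ≥4 weeks at air-liquid interface, treated basolaterally with compound for 24 h at 37 °C. Transepithelial voltage and conductance by 24-channel current clamp at 36 °C: benzamil, then forskolin plus VX-770 for 27 min, then bumetanide; AUC of equivalent chloride current over vehicle.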
In the case of `CNS(=O)(=O)c1ccc([C@H](C)Oc2ccc(C)c3nc(-c4oc5ccccc5c4C)cc(C(=O)[O-])c23)cc1.[Na+]` [Compound 240, Sodium 8-Methyl-2-(3-methyl-1-benzofuran-2-yl)-5-[(1S)-1-[4-(methylsulfamoyl)phenyl]ethoxy]quinoline-4-carboxylate], the Activity is reported as “++ (activity>50% of CFTR amplifier+VX-809 (3 uM) with compound at 10 uM and Compound A at 3 uM)”.
For `Cc1c(-c2cc(C(=O)[O-])c3c(O[C@@H](C)C4CCCCC4)ccc(C)c3n2)oc2ccccc12.[Na+]` [Compound 244], the Activity was “++ (activity>50% of CFTR amplifier+VX-809 (3 uM) with compound at 10 uM and Compound A at 3 uM)”.
In the case of `Cc1c(-c2cc(C(=O)[O-])c3c(O[C@H](C)C4CCOCC4)ccc(C)c3n2)oc2ccccc12.[Na+]` [Compound 245, Sodium 5-((1R)-1-(tetrahydro-2H-pyran-4-yl)ethoxy)-8-methyl-2-(3-methyl-1-benzofuran-2-yl)quinoline-4-carboxylate], the Activity is reported as “++ (activity>50% of CFTR amplifier+VX-809 (3 uM) with compound at 10 uM and Compound A at 3 uM)”.
`Cc1c(-c2cc(C(=O)[O-])c3c(O[C@@H](C)C4CCOCC4)ccc(C)c3n2)oc2ccccc12.[Na+]` [Compound 246, Sodium 5-((1S)-1-(tetrahydro-2H-pyran-4-yl)ethoxy)-8-methyl-2-(3-methyl-1-benzofuran-2-yl)quinoline-4-carboxylate] was tested, and the Activity was “++ (activity>50% of CFTR amplifier+VX-809 (3 uM) with compound at 10 uM and Compound A at 3 uM)”.
For `Cc1c(-c2cc(C(=O)[O-])c3c(O[C@H](C)C4CCN(S(C)(=O)=O)CC4)ccc(C)c3n2)oc2ccccc12.[Na+]` [Compound 247, Sodium 5-[(1R)-1-(1-Methanesulfonylpiperidin-4-yl)ethoxy]-8-methyl-2-(3-methyl-1-benzofuran-2-yl)quinoline-4-carboxylate], the Activity was “++ (activity>50% of CFTR amplifier+VX-809 (3 uM) with compound at 10 uM and Compound A at 3 uM)”.
For `Cc1c(-c2cc(C(=O)[O-])c3c(O[C@@H](C)C4CCN(S(C)(=O)=O)CC4)ccc(C)c3n2)oc2ccccc12.[Na+]` [Compound 248, Sodium 5-[(1S)-1-(1-Methanesulfonylpiperidin-4-yl)ethoxy]-8-methyl-2-(3-methyl-1-benzofuran-2-yl)quinoline-4-carboxylate], the Activity was “++ (activity>50% of CFTR amplifier+VX-809 (3 uM) with compound at 10 uM and Compound A at 3 uM)”.
`Cc1c(-c2cc(C(=O)[O-])c3c(O[C@@H]4CCc5ccccc5C4)ccc(C)c3n2)oc2ccccc12.[Na+]` [Compound 249] was tested, and the Activity was “++ (activity>50% of CFTR amplifier+VX-809 (3 uM) with compound at 10 uM and Compound A at 3 uM)”.
`Cc1c(-c2cc(C(=O)[O-])c3c(O[C@H]4CCc5ccccc5C4)ccc(C)c3n2)oc2ccccc12.[Na+]` [Compound 253] was tested, and the Activity was “++ (activity>50% of CFTR amplifier+VX-809 (3 uM) with compound at 10 uM and Compound A at 3 uM)”.
`Cc1c(-c2cc(C(=O)[O-])c3c(O[C@H](C)c4ccn5nccc5c4)ccc(C)c3n2)oc2ccccc12.[Na+]` [Compound 257, Sodium 8-Methyl-2-((1R)-3-methyl-1-benzofuran-2-yl)-5-(1-[pyrazolo[1,5-a]pyridin-5-yl]ethoxy)quinoline-4-carboxylate] was tested, and the Activity was “++ (activity>50% of CFTR amplifier+VX-809 (3 uM) with compound at 10 uM and Compound A at 3 uM)”.
`Cc1c(-c2cc(C(=O)[O-])c3c(O[C@@H](C)c4ccn5nccc5c4)ccc(C)c3n2)oc2ccccc12.[Na+]` [Compound 258, Sodium 8-Methyl-2-((1S)-3-methyl-1-benzofuran-2-yl)-5-(1-[pyrazolo[1,5-a]pyridin-5-yl]ethoxy)quinoline-4-carboxylate] was tested, and the Activity was “++ (activity>50% of CFTR amplifier+VX-809 (3 uM) with compound at 10 uM and Compound A at 3 uM)”.
For `Cc1c(-c2cc(C(=O)[O-])c3c(OCc4ccc(S(C)(=O)=O)cc4)ccc(C)c3n2)oc2ccccc12.[Na+]` [Compound 263], the Activity was “++ (activity>50% of CFTR amplifier+VX-809 (3 uM) with compound at 10 uM and Compound A at 3 uM)”.
For `Cc1c(-c2cc(C(=O)[O-])c3c(OCc4ccc(S(C)(=O)=O)cc4)ccc(C)c3n2)sc2ccccc12.[Na+]` [Compound 264], the Activity was “++ (activity>50% of CFTR amplifier+VX-809 (3 uM) with compound at 10 uM and Compound A at 3 uM)”.
In the case of `Cc1c(-c2cc(C(=O)[O-])c3c(O[C@H](C)c4ccc(S(C)(=O)=O)cc4)ccc(C)c3n2)sc2ccccc12.[Na+]` [Compound 265], the Activity is reported as “++ (activity>50% of CFTR amplifier+VX-809 (3 uM) with compound at 10 uM and Compound A at 3 uM)”.
In the case of `Cc1c(-c2cc(C(=O)[O-])c3c(O[C@@H](C)c4ccc(S(C)(=O)=O)cc4)ccc(C)c3n2)sc2ccccc12.[Na+]` [Compound 266], the Activity is reported as “++ (activity>50% of CFTR amplifier+VX-809 (3 uM) with compound at 10 uM and Compound A at 3 uM)”.
`Cc1c(-c2cc(-c3cc(O)[nH]n3)c3c(O[C@H](C)c4ccccc4)ccc(C)c3n2)oc2ccccc12` [Compound 274] was tested, and the Activity was “+ (activity<50% of an CFTR amplifier (Compound A)+VX-809 (3 uM) with compound at 10 uM and Compound A at 3 uM)”.
For `Cc1c(-c2cc(CC(=O)O)c3c(OC(C)c4ccccc4)ccc(C)c3n2)oc2ccccc12` (stereo not shown) [Compound 276, 2-[8-Methyl-2-(3-methyl-1-benzofuran-2-yl)-5-(1-phenylethoxy)quinolin-4-yl]acetic Acid], the Activity was “++ (activity>50% of CFTR amplifier+VX-809 (3 uM) with compound at 10 uM and Compound A at 3 uM)”.
`Cc1c(-c2cc(C(=O)[O-])c3c(OC4CC(C)C4)ccc(C)c3n2)sc2ccccc12.[Na+]` (stereo not shown) [Compound 277, Sodium 8-Methyl-2-(3-methyl-1-benzothiophen-2-yl)-5-(3-methylcyclobutoxy)quinoline-4-carboxylate] was tested, and the Activity was “++ (activity>50% of CFTR amplifier+VX-809 (3 uM) with compound at 10 uM and Compound A at 3 uM)”.
In the case of `Cc1c(-c2cc(C(=O)[O-])c3c(OCc4ccccc4C#N)ccc(C)c3n2)sc2ccccc12.[Na+]` [Compound 280], the Activity is reported as “++ (activity>50% of CFTR amplifier+VX-809 (3 uM) with compound at 10 uM and Compound A at 3 uM)”.
In the case of `Cc1c(-c2cc(C(=O)[O-])c3c(O[C@H]4C[C@H](c5ccccc5)C4)ccc(C)c3n2)oc2ccccc12.[Na+]` [Compound 281, Sodium 8-Methyl-2-(3-methyl-1-benzofuran-2-yl)-5-[(1r,3r)-3-phenylcyclobutoxy]quinoline-4-carboxylate], the Activity is reported as “++ (activity>50% of CFTR amplifier+VX-809 (3 uM) with compound at 10 uM and Compound A at 3 uM)”.
In the case of `Cc1c(-c2cc(C(=O)[O-])c3c(O[C@H]4C[C@@H](c5ccccc5)C4)ccc(C)c3n2)oc2ccccc12.[Na+]` [Compound 282, Sodium 8-Methyl-2-(3-methyl-1-benzofuran-2-yl)-5-[(1s,3s)-3-phenylcyclobutoxy]quinoline-4-carboxylate], the Activity is reported as “++ (activity>50% of CFTR amplifier+VX-809 (3 uM) with compound at 10 uM and Compound A at 3 uM)”.
For `Cc1c(-c2cc(C(=O)[O-])c3c(O[C@H]4C[C@H](c5ccccc5)C4)ccc(C)c3n2)sc2ccccc12.[Na+]` [Compound 283, Sodium 8-Methyl-2-(3-methyl-1-benzothiophen-2-yl)-5-[(1r,3r)-3-phenylcyclobutoxy]quinoline-4-carboxylate], the Activity was “++ (activity>50% of CFTR amplifier+VX-809 (3 uM) with compound at 10 uM and Compound A at 3 uM)”.
In the case of `Cc1c(-c2cc(C(=O)[O-])c3c(O[C@H]4C[C@@H](c5ccccc5)C4)ccc(C)c3n2)sc2ccccc12.[Na+]` [Compound 284, Sodium 8-Methyl-2-(3-methyl-1-benzothiophen-2-yl)-5-[(1s,3s)-3-phenylcyclobutoxy]quinoline-4-carboxylate], the Activity is reported as “++ (activity>50% of CFTR amplifier+VX-809 (3 uM) with compound at 10 uM and Compound A at 3 uM)”.
In the case of `Cc1c(-c2cc(C(=O)[O-])c3c(O[C@H](C)c4ccc(C5COC5)cc4)ccc(C)c3n2)oc2ccccc12.[Na+]` [Compound 285, Sodium 8-Methyl-2-(3-methyl-1-benzofuran-2-yl)-5-[(1R)-1-[4-(oxetan-3-yl)phenyl]ethoxy]quinoline-4-carboxylate], the Activity is reported as “++ (activity>50% of CFTR amplifier+VX-809 (3 uM) with compound at 10 uM and Compound A at 3 uM)”.
`Cc1c(-c2cc(C(=O)[O-])c3c(O[C@@H](C)c4ccc(C5COC5)cc4)ccc(C)c3n2)oc2ccccc12.[Na+]` [Compound 286, Sodium 8-Methyl-2-(3-methyl-1-benzofuran-2-yl)-5-[(1S)-1-[4-(oxetan-3-yl)phenyl]ethoxy]quinoline-4-carboxylate] was tested, and the Activity was “++ (activity>50% of CFTR amplifier+VX-809 (3 uM) with compound at 10 uM and Compound A at 3 uM)”.
For `Cc1c(-c2cc(C(=O)[O-])c3c(OCc4ccccc4F)ccc(C)c3n2)sc2ccccc12.[Na+]` [Compound 289, Sodium 5-[(2-Fluorophenyl)methoxy]-8-methyl-2-(3-methyl-1-benzothiophen-2-yl)quinoline-4-carboxylate], the Activity was “++ (activity>50% of CFTR amplifier+VX-809 (3 uM) with compound at 10 uM and Compound A at 3 uM)”.
With `Cc1c(-c2cc(C(=O)[O-])c3c(OCc4cccc(F)c4)ccc(C)c3n2)sc2ccccc12.[Na+]` [Compound 290, Sodium 5-[(3-Fluorophenyl)methoxy]-8-methyl-2-(3-methyl-1-benzothiophen-2-yl)quinoline-4-carboxylate] the Activity was “++ (activity>50% of CFTR amplifier+VX-809 (3 uM) with compound at 10 uM and Compound A at 3 uM)”.
`Cc1c(-c2cc(C(=O)[O-])c3c(OCc4ccc(F)cc4)ccc(C)c3n2)sc2ccccc12.[Na+]` [Compound 291, Sodium 5-[(4-Fluorophenyl)methoxy]-8-methyl-2-(3-methyl-1-benzothiophen-2-yl)quinoline-4-carboxylate] was tested, and the Activity was “++ (activity>50% of CFTR amplifier+VX-809 (3 uM) with compound at 10 uM and Compound A at 3 uM)”.
`COc1ccccc1COc1ccc(C)c2nc(-c3sc4ccccc4c3C)cc(C(=O)[O-])c12.[Na+]` [Compound 292, Sodium 5-[(2-Methoxyphenyl)methoxy]-8-methyl-2-(3-methyl-1-benzothiophen-2-yl)quinoline-4-carboxylate] was tested, and the Activity was “++ (activity>50% of CFTR amplifier+VX-809 (3 uM) with compound at 10 uM and Compound A at 3 uM)”.
